Reference: patent US4721718A, “2-[(imidazo[1,2-a]pyridin-3-ylmethyl)sulfinyl]-1H-benzimidazoles useful in the treatment and prevention of ulcers” (G. D. Searle & Co., priority 1986, dated 1988)

Molecular target: T1, (H^+ +K^+)-ATPase (Canis lupus familiaris, UniProt P50996)
T1 construct: from tissue; host or cells: gastric glandular mucosa of mongrel dogs (microsomes from the 15-30% sucrose interface, lyophilized)
Assay: Inhibition of (H^+ +K^+)-ATPase from Canine Gastric Mucosa
Assay type: biochemical, canine (mongrel dogs)
Conditions: for IC50: canine gastric mucosa microsomes, 30 min preincubation at 37°, pH 6.0, K^+-stimulated minus basal activity
Procedure: The antisecretory activity of the compounds of this invention illustrated in the Examples was tested by the following method.
Inhibition of ([…] +K^+)-ATPase from Canine Gastric Mucosa
Mongrel dogs weighing 15 to 25 kilograms were fasted for twenty-four hours, with water provided ad libitum. The animals were anesthetized with pentobarbital and the stomachs were removed. Subsequent tissue manipulations and subcellular fractionations were performed at 0° to 4° C. After the stomachs were cut open and rinsed with tap water, the antral and cardiac regions were removed and the remaining tissue was rinsed three times in saline. The glandular mucosa was removed mechanically, chopped finely in a medium containing 10 mM Tris hydrochloride (pH 7.4) and 250 mM sucrose, and homogenized. The homogenate was centrifuged at 20,000×g for twenty minutes and the pellet discarded. The supernatant was then centrifuged at 150,000xg for ninety minutes and the supernatant discarded. The pellet was resuspended in the Tris-HCl/sucrose medium by homogenization. Part (2 ml) of the resultant microsomal suspension was layered onto a step gradient consisting of 9 ml of 15% sucrose above 12 ml of 30% sucrose, each sucrose solution being buffered with 10 mM Tris hydrochloride (pH 7.4) containing 0.01% sodium azide. The microsomes retained at the 15-30% sucrose interface, after centrifugation at 250,000×g for sixty minutes, were used as the source of (H^+ +K^+)-ATPase. Microsomal preparations were lyophilized, a process that assured potassium ion permiability, and stored at -10° until used.
The (H^+ +K^+)-ATPase activity for each test compound was determined, in duplicate, by measuring the release of inorganic phosphate, which was assayed according to the method of J. ChandraRajan and L. Klein., Anal. Biochem., 72. 407-412 (1976). […] At least fifteen minutes later, the optical absorbance at 870 nm (which was proportional to inorganic phosphate concentration up to 100 nmoles per tube, as determined by a standard curve) was obtained. […]

T1 sequence (P50996 whole entry): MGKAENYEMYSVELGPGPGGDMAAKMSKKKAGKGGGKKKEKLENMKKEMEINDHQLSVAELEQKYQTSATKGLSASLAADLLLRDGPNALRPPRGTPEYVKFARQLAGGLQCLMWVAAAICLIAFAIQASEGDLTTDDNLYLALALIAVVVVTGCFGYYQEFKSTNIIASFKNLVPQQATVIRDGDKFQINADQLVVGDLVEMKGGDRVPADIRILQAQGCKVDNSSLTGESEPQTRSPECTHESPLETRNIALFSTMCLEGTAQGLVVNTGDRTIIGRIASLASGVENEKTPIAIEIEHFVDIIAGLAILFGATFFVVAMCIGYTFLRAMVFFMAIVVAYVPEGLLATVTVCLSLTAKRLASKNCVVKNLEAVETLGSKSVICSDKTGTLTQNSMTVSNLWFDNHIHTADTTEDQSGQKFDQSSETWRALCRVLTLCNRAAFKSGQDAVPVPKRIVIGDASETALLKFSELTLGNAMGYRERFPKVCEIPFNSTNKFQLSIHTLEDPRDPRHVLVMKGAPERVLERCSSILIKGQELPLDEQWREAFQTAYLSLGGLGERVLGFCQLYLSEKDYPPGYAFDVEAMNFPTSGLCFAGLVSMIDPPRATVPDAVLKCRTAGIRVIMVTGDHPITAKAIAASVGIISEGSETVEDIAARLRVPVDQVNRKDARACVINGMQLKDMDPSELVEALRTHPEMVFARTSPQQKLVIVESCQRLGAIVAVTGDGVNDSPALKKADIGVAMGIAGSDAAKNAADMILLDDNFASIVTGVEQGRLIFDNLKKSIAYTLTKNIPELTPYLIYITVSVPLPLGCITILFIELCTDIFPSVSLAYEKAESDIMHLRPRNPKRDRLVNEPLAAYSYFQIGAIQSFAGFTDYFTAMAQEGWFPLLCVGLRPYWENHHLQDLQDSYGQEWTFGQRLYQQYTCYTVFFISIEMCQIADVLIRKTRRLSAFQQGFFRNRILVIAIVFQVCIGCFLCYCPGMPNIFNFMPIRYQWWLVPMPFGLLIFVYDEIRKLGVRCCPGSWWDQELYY
T1 sequence (P33704 whole entry partner): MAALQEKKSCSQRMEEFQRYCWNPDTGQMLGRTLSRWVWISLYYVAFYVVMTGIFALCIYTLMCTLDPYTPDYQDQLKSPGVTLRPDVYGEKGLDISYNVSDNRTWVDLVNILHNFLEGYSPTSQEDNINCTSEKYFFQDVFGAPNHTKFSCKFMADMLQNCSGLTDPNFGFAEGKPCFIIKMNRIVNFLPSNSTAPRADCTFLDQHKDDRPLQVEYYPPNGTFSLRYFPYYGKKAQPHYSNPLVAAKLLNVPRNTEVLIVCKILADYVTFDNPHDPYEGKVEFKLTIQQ

| IC50 [µM] | Compound | inhibition of (H^+ +K^+)-ATPase activity (in words) (as shown in Table I) |
| --- | --- | --- |
| 3.88 | [O-][S+](Cc1cnc2ccccn12)c1nc2ccccc2[nH]1 (stereo not drawn) [Example 2, 2-[(imidazo[1,2-a]pyridin-3-ylmethyl)sulfinyl]-1H-benzimidazole 1/4 hydrate] |  |
| > 100 | [O-][S+](Cc1cn2ccccc2n1)c1nc2ccccc2[nH]1 (stereo not drawn) [Example 4, 2-[(imidazo[1,2-a]pyridin-2-ylmethyl)sulfinyl]-1H-benzimidazole] | not inhibiting (H^+ +K^+)-ATPase activity |
